Target: T1, calcitonin receptors (CTR) (Homo sapiens, UniProt P30988)
T1 construct: expressed in transfected cells; host or cells: cAMP Hunter HEK293-CT-R Gs cell line (HEK293, stably transfected)
T1 sequence (P30988 25-474): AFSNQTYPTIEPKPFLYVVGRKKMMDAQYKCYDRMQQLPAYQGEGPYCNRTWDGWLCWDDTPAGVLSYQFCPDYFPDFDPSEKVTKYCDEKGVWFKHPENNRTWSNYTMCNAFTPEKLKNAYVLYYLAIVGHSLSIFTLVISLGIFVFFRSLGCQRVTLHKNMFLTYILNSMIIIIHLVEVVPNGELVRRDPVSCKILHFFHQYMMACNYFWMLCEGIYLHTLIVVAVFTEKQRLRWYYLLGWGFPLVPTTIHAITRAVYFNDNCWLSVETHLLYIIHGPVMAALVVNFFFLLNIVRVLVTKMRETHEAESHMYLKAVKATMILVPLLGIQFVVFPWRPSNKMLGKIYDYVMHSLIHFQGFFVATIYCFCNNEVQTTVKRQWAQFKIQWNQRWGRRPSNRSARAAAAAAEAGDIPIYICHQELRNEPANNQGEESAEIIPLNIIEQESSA
Test: cAMP determination (HTRF, cAMP Dynamic 2 Kit) in cAMP Hunter HEK293-CT-R Gs cell line
Assay type: cell-based
Conditions: for Relative Activity%: relative to Salmon Calcitonin = 100.0, HEK293 CT-R cAMP; for EC50: HEK293 cell line stably expressing CT-R, intracellular cAMP, HTRF
Description: Upon activation by a ligand, Gas-coupled GPCRs can upregulate intracellular cAMP level, and cAMP, as a second messenger, can mediate a series of cellular responses. The cAMP Hunter HEK293-CT-R Gs cell line, which overexpresses Gas-coupled calcitonin receptors (CTR), was used. The binding of calcitonin (or an analog thereof) to the overexpressed CTR upregulates intracellular cAMP level. The amount of intracellular cAMP produced after activation by the calcitonin (or an analog thereof) was detected using a cAMP Dynamic 2 Kit to evaluate the biological activity of the calcitonin (or an analog thereof). HEK293 cell line stably expressing CT-R was used. Stably transfected cells were stimulated with various concentrations of agonists. The time-resolved fluorescence resonance energy signal from the cells after stimulation with different doses was measured using HTRF technology, from which the biological activity of the agonist was subsequently calculated.

| Compound | Relative Activity% | EC50 |
| --- | --- | --- |
| CC(C)C[C@H](NC(=O)[C@H](CCCCN)NC(=O)CNC(=O)[C@H](CC(C)C)NC(=O)[C@@H](NC(=O)[C@@H]1CSSC[C@H](N)C(=O)N[C@@H](CO)C(=O)N[C@@H](CC(N)=O)C(=O)N[C@@H](CC(C)C)C(=O)N[C@@H](CO)C(=O)N[C@@H]([C@@H](C)O)C(=O)N1)C(C)C)C(=O)N[C@@H](CO)C(=O)N[C@@H](CCC(N)=O)C(=O)N[C@@H](CCC(=O)O)C(=O)N[C@@H](CC(C)C)C(=O)N[C@@H](Cc1c[nH]cn1)C(=O)N[C@@H](CCCCNC(=O)COCCNC(=O)CC[C@H](NC(=O)CCCCCCCCCCCCCCCCCCC(=O)O)C(=O)O)C(=O)N[C@@H](CC(C)C)C(=O)N[C@@H](CCC(N)=O)C(=O)N[C@H](C(=O)N[C@@H](Cc1ccc(O)cc1)C(=O)N1CCC[C@H]1C(=O)N[C@@H](CCCNC(=N)N)C(=O)N[C@H](C(=O)N[C@@H](CC(N)=O)C(=O)N[C@H](C(=O)NCC(=O)N[C@@H](CO)C(=O)NCC(=O)N[C@H](C(=O)N1CCC[C@H]1C(N)=O)[C@@H](C)O)[C@@H](C)O)[C@@H](C)O)[C@@H](C)O [Compound 1, Cys-Ser-Asn-Leu-Ser-Thr-Cys-Val-Leu-Gly-Lys-Leu-Ser-Gln-Glu-Leu-His-Lys(PEG1CH2CO-γGlu-eicosanedioic acid)-Leu-Gln-Thr-Tyr-Pro-Arg-Thr-Asn-Thr-Gly-Ser-Gly-Thr-Pro-NH2] | 206.5% | – |
| CC(C)C[C@H](NC(=O)[C@H](CCCCN)NC(=O)CNC(=O)[C@H](CC(C)C)NC(=O)[C@@H](NC(=O)[C@@H]1CSSC[C@H](N)C(=O)N[C@@H](CO)C(=O)N[C@@H](CC(N)=O)C(=O)N[C@@H](CC(C)C)C(=O)N[C@@H](CO)C(=O)N[C@@H]([C@@H](C)O)C(=O)N1)C(C)C)C(=O)N[C@@H](CO)C(=O)N[C@@H](CCC(N)=O)C(=O)N[C@@H](CCC(=O)O)C(=O)N[C@@H](CC(C)C)C(=O)N[C@@H](Cc1c[nH]cn1)C(=O)N[C@@H](CCCCNC(=O)COCCOCCNC(=O)CC[C@H](NC(=O)CCCCCCCCCCCCCCCCCCC(=O)O)C(=O)O)C(=O)N[C@@H](CC(C)C)C(=O)N[C@@H](CCC(N)=O)C(=O)N[C@H](C(=O)N[C@@H](Cc1ccc(O)cc1)C(=O)N1CCC[C@H]1C(=O)N[C@@H](CCCNC(=N)N)C(=O)N[C@H](C(=O)N[C@@H](CC(N)=O)C(=O)N[C@H](C(=O)NCC(=O)N[C@@H](CO)C(=O)NCC(=O)N[C@H](C(=O)N1CCC[C@H]1C(N)=O)[C@@H](C)O)[C@@H](C)O)[C@@H](C)O)[C@@H](C)O [Compound 2, Cys-Ser-Asn-Leu-Ser-Thr-Cys-Val-Leu-Gly-Lys-Leu-Ser-Gln-Glu-Leu-His-Lys(PEG2CH2CO-γGlu-eicosanedioic acid)-Leu-Gln-Thr-Tyr-Pro-Arg-Thr-Asn-Thr-Gly-Ser-Gly-Thr-Pro-NH2] | 231.7% | – |
| CC(C)C[C@H](NC(=O)[C@H](CCCCN)NC(=O)CNC(=O)[C@H](CC(C)C)NC(=O)[C@@H](NC(=O)[C@@H]1CSSC[C@H](N)C(=O)N[C@@H](CO)C(=O)N[C@@H](CC(N)=O)C(=O)N[C@@H](CC(C)C)C(=O)N[C@@H](CO)C(=O)N[C@@H]([C@@H](C)O)C(=O)N1)C(C)C)C(=O)N[C@@H](CO)C(=O)N[C@@H](CCC(N)=O)C(=O)N[C@@H](CCC(=O)O)C(=O)N[C@@H](CC(C)C)C(=O)N[C@@H](Cc1c[nH]cn1)C(=O)N[C@@H](CCCCNC(=O)COCCOCCOCCNC(=O)CC[C@H](NC(=O)CCCCCCCCCCCCCCCCCCC(=O)O)C(=O)O)C(=O)N[C@@H](CC(C)C)C(=O)N[C@@H](CCC(N)=O)C(=O)N[C@H](C(=O)N[C@@H](Cc1ccc(O)cc1)C(=O)N1CCC[C@H]1C(=O)N[C@@H](CCCNC(=N)N)C(=O)N[C@H](C(=O)N[C@@H](CC(N)=O)C(=O)N[C@H](C(=O)NCC(=O)N[C@@H](CO)C(=O)NCC(=O)N[C@H](C(=O)N1CCC[C@H]1C(N)=O)[C@@H](C)O)[C@@H](C)O)[C@@H](C)O)[C@@H](C)O [Compound 3, Cys-Ser-Asn-Leu-Ser-Thr-Cys-Val-Leu-Gly-Lys-Leu-Ser-Gln-Glu-Leu-His-Lys(PEG3CH2CO-yGlu-eicosanedioic acid)-Leu-Gln-Thr-Tyr-Pro-Arg-Thr-Asn-Thr-Gly-Ser-Gly-Thr-Pro-NH2] | 256.8% | – |
| CC(C)C[C@H](NC(=O)[C@H](CCCCN)NC(=O)CNC(=O)[C@H](CC(C)C)NC(=O)[C@@H](NC(=O)[C@@H]1CSSC[C@H](N)C(=O)N[C@@H](CO)C(=O)N[C@@H](CC(N)=O)C(=O)N[C@@H](CC(C)C)C(=O)N[C@@H](CO)C(=O)N[C@@H]([C@@H](C)O)C(=O)N1)C(C)C)C(=O)N[C@@H](CO)C(=O)N[C@@H](CCC(N)=O)C(=O)N[C@@H](CCC(=O)O)C(=O)N[C@@H](CC(C)C)C(=O)N[C@@H](Cc1c[nH]cn1)C(=O)N[C@@H](CCCCNC(=O)COCCOCCOCCOCCNC(=O)CC[C@H](NC(=O)CCCCCCCCCCCCCCCCCCC(=O)O)C(=O)O)C(=O)N[C@@H](CC(C)C)C(=O)N[C@@H](CCC(N)=O)C(=O)N[C@H](C(=O)N[C@@H](Cc1ccc(O)cc1)C(=O)N1CCC[C@H]1C(=O)N[C@@H](CCCNC(=N)N)C(=O)N[C@H](C(=O)N[C@@H](CC(N)=O)C(=O)N[C@H](C(=O)NCC(=O)N[C@@H](CO)C(=O)NCC(=O)N[C@H](C(=O)N1CCC[C@H]1C(N)=O)[C@@H](C)O)[C@@H](C)O)[C@@H](C)O)[C@@H](C)O [Compound 4, Cys-Ser-Asn-Leu-Ser-Thr-Cys-Val-Leu-Gly-Lys-Leu-Ser-Gln-Glu-Leu-His-Lys(PEG4CH2CO-yGlu-eicosanedioic acid)-Leu-Gln-Thr-Tyr-Pro-Arg-Thr-Asn-Thr-Gly-Ser-Gly-Thr-Pro-NH2] | 316.7% | – |

Next, values leading:

| Relative Activity% | EC50 | Compound |
| --- | --- | --- |
| 172.7% | – | CC(C)C[C@H](NC(=O)[C@H](CCCCN)NC(=O)CNC(=O)[C@H](CC(C)C)NC(=O)[C@@H](NC(=O)[C@@H]1CSSC[C@H](N)C(=O)N[C@@H](CO)C(=O)N[C@@H](CC(N)=O)C(=O)N[C@@H](CC(C)C)C(=O)N[C@@H](CO)C(=O)N[C@@H]([C@@H](C)O)C(=O)N1)C(C)C)C(=O)N[C@@H](CO)C(=O)N[C@@H](CCC(N)=O)C(=O)N[C@@H](CCC(=O)O)C(=O)N[C@@H](CC(C)C)C(=O)N[C@@H](Cc1c[nH]cn1)C(=O)N[C@@H](CCCCNC(=O)COCCOCCOCCOCCOCCOCCNC(=O)CC[C@H](NC(=O)CCCCCCCCCCCCCCCCCCC(=O)O)C(=O)O)C(=O)N[C@@H](CC(C)C)C(=O)N[C@@H](CCC(N)=O)C(=O)N[C@H](C(=O)N[C@@H](Cc1ccc(O)cc1)C(=O)N1CCC[C@H]1C(=O)N[C@@H](CCCNC(=N)N)C(=O)N[C@H](C(=O)N[C@@H](CC(N)=O)C(=O)N[C@H](C(=O)NCC(=O)N[C@@H](CO)C(=O)NCC(=O)N[C@H](C(=O)N1CCC[C@H]1C(N)=O)[C@@H](C)O)[C@@H](C)O)[C@@H](C)O)[C@@H](C)O [Compound 6, Cys-Ser-Asn-Leu-Ser-Thr-Cys-Val-Leu-Gly-Lys-Leu-Ser-Gln-Glu-Leu-His-Lys(PEG6CH2CO-yGlu-eicosanedioic acid)-Leu-Gln-Thr-Tyr-Pro-Arg-Thr-Asn-Thr-Gly-Ser-Gly-Thr-Pro-NH2] |
| – | 4.4 pM | CC(C)C[C@H](NC(=O)[C@H](CCCCN)NC(=O)CNC(=O)[C@H](CC(C)C)NC(=O)[C@@H](NC(=O)[C@@H]1CSSC[C@H](N)C(=O)N[C@@H](CO)C(=O)N[C@@H](CC(N)=O)C(=O)N[C@@H](CC(C)C)C(=O)N[C@@H](CO)C(=O)N[C@@H]([C@@H](C)O)C(=O)N1)C(C)C)C(=O)N[C@@H](CO)C(=O)N[C@@H](CCC(N)=O)C(=O)N[C@@H](CCC(=O)O)C(=O)N[C@@H](CC(C)C)C(=O)N[C@@H](Cc1c[nH]cn1)C(=O)N[C@@H](CCCCNC(=O)CNC(=O)[C@H](CO)NC(=O)CNC(=O)[C@H](CO)NC(=O)CC[C@H](NC(=O)CCCCCCCCCCCCCCCCCCC(=O)O)C(=O)O)C(=O)N[C@@H](CC(C)C)C(=O)N[C@@H](CCC(N)=O)C(=O)N[C@H](C(=O)N[C@@H](Cc1ccc(O)cc1)C(=O)N1CCC[C@H]1C(=O)N[C@@H](CCCNC(=N)N)C(=O)N[C@H](C(=O)N[C@@H](CC(N)=O)C(=O)N[C@H](C(=O)NCC(=O)N[C@@H](CO)C(=O)NCC(=O)N[C@H](C(=O)N1CCC[C@H]1C(N)=O)[C@@H](C)O)[C@@H](C)O)[C@@H](C)O)[C@@H](C)O [Compound 7] |
| – | 3.7 pM | CC(C)C[C@H](NC(=O)[C@H](CCCCN)NC(=O)CNC(=O)[C@H](CC(C)C)NC(=O)[C@@H](NC(=O)[C@@H]1CSSC[C@H](N)C(=O)N[C@@H](CO)C(=O)N[C@@H](CC(N)=O)C(=O)N[C@@H](CC(C)C)C(=O)N[C@@H](CO)C(=O)N[C@@H]([C@@H](C)O)C(=O)N1)C(C)C)C(=O)N[C@@H](CO)C(=O)N[C@@H](CCC(N)=O)C(=O)N[C@@H](CCC(=O)O)C(=O)N[C@@H](CC(C)C)C(=O)N[C@@H](Cc1c[nH]cn1)C(=O)N[C@@H](CCCCNC(=O)CNC(=O)CNC(=O)[C@H](CO)NC(=O)CNC(=O)[C@H](CO)NC(=O)CNC(=O)CC[C@H](NC(=O)CCCCCCCCCCCCCCCCCCC(=O)O)C(=O)O)C(=O)N[C@@H](CC(C)C)C(=O)N[C@@H](CCC(N)=O)C(=O)N[C@H](C(=O)N[C@@H](Cc1ccc(O)cc1)C(=O)N1CCC[C@H]1C(=O)N[C@@H](CCCNC(=N)N)C(=O)N[C@H](C(=O)N[C@@H](CC(N)=O)C(=O)N[C@H](C(=O)NCC(=O)N[C@@H](CO)C(=O)NCC(=O)N[C@H](C(=O)N1CCC[C@H]1C(N)=O)[C@@H](C)O)[C@@H](C)O)[C@@H](C)O)[C@@H](C)O [Compound 8] |
